Source: US12070472B2, “Treatment of drug resistant proliferative diseases with telomerase mediated telomere altering compounds” (The Board of Regents of the University of Texas System, priority 2016, dated 2024)

What was measured:
[1] = system: HCC515; assay: GI 50 determination, HCC515; type: cell-based; settings: Homo sapiens
Description: (§1) Cells of each type listed in Table 2 were seeded in chamber slides.

[2] = system: H2009; assay: GI 50 determination, H2009; type: cell-based; settings: Homo sapiens, NCI-H2009
Description: as §1

[3] = system: H2087; assay: GI 50 determination, H2087; type: cell-based; settings: Homo sapiens, NCI-H2087
Description: as §1

[4] = system: H2882; assay: GI 50 determination, H2882; type: cell-based; settings: Homo sapiens, NCI-H2882
Description: as §1

[5] = biological target: T1, telomerase (Homo sapiens, UniProt O14746); assay: Telomerase activity by TRAP assay in treated HCT116 cells; type: cell-based; settings: HCT116 cells treated with 1 and 10 μM every 3 days for 12 weeks
T1 construct: endogenous in cells; host or cells: HCT116 human colon cancer cells (lysate)
T1 sequence (O14746 whole entry): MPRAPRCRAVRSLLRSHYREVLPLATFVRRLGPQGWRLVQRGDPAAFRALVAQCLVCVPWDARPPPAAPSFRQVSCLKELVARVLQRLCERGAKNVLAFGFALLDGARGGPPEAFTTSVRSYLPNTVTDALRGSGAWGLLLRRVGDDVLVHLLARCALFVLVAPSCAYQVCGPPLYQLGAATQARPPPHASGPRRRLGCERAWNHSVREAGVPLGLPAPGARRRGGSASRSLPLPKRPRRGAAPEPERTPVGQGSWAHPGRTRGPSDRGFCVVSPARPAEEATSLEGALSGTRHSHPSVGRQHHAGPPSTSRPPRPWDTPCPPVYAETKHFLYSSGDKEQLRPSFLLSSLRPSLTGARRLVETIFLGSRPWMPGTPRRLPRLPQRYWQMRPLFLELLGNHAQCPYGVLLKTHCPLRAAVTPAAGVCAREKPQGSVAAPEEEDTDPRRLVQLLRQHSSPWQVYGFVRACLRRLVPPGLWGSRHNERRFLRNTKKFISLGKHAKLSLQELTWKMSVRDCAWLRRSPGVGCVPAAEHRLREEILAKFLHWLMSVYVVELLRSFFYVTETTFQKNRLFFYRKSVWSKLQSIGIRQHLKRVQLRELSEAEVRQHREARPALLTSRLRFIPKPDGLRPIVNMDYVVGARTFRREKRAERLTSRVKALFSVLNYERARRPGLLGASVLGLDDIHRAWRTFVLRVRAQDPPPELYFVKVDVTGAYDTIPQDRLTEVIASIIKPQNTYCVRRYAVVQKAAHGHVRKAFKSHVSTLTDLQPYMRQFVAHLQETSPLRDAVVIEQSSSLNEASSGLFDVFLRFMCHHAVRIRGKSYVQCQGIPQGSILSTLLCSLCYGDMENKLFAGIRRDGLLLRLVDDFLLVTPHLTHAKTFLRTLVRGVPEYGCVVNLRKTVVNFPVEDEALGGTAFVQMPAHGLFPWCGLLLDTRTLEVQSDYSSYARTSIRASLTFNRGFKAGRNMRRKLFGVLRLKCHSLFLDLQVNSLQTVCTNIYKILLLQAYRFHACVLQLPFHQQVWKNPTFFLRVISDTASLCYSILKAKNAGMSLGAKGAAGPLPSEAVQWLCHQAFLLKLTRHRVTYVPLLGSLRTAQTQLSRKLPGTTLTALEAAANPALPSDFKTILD
T1 sequence (O60832 whole entry partner): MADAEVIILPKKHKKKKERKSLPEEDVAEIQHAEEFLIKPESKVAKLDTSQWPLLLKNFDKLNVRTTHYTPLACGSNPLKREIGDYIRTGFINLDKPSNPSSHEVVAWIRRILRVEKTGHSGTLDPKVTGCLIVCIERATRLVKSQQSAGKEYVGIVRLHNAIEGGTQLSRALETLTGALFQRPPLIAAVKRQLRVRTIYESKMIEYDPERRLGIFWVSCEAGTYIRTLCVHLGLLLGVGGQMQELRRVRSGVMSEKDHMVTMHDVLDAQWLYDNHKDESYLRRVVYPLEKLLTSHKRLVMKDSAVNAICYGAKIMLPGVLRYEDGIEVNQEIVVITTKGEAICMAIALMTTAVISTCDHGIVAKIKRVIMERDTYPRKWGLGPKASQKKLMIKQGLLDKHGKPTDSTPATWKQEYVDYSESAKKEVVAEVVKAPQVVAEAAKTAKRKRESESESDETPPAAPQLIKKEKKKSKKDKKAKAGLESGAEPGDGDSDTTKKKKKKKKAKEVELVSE
T1 sequence (Q9NY12 whole entry partner): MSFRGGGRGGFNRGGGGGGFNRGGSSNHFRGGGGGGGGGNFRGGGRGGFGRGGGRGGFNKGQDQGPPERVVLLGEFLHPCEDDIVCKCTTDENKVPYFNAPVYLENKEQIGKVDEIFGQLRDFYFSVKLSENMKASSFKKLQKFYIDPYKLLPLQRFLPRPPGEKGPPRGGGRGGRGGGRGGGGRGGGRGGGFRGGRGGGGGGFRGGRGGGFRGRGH
T1 sequence (Q9NX24 whole entry partner): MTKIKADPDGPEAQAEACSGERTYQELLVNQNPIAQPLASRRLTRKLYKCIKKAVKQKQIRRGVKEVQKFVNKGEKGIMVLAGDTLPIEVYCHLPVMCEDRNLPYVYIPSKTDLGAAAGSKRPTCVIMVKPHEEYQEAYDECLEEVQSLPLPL
T1 sequence (Q9NPE3 whole entry partner): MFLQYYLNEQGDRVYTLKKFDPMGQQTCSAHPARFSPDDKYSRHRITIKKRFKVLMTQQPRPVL
T1 sequence (Q9BUR4 whole entry partner): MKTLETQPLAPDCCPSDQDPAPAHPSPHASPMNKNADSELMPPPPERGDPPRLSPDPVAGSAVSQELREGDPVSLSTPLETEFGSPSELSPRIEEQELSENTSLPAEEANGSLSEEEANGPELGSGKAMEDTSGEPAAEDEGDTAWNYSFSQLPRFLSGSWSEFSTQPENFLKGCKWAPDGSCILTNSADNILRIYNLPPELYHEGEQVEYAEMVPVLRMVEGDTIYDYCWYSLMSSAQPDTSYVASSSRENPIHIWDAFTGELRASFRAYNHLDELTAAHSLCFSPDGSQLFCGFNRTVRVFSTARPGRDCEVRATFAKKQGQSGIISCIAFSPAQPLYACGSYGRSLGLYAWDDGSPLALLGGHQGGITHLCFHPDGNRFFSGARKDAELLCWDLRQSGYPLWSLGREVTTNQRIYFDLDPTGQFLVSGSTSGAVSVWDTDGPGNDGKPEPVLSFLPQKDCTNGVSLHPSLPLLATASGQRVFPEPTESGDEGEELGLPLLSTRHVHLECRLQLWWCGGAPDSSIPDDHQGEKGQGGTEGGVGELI
Description: Telomerase activity was measured by the TRAP assay (Telomeric Repeat Amplification Protocol as described in Shay J. W. and Bacchetti S., “A survey of telomerase activity in human cancer,” European Journal of Cancer 1997; 33:787-91.). Briefly, HCT116 cells were treated with 1 or 10 μM 6-thio-dG for 1-12 weeks. 1×10^5 cells were collected and lysed with ice-cold NP-40 lysis buffer (10 mM Tris-HCl pH 8.0, 1.0 mM MgCl2, 1 mM EDTA, 1% NP-40, 0.25 mM sodium deoxycholate, 10% glycerol, 150 mM NaCl, 5 mM β-mercaptoethanol) for 30 min. One microliter cellular lysate for 2500 cells was used for each reaction. Hela cells were used as a positive control and lysis buffer was used as a negative control. Samples were prepared and then the telomerase extension products were amplified using PCR (95° C. for 5 min to inactivate telomerase, then 95° C. for 30 sec, 52° C. for 30 sec, 72° C. for 30 sec; 24 cycles). Samples were run on a 10% non-denaturating acrylamide gel and visualized using a Typhoon PhosphorImager scanner system (Molecular Dynamics, GE Healthcare, Piscataway, NJ) that is capable of reading Cy5 fluorescence.

[6] = system: BJ fibroblast cells; assay: Telomere length assay (TRF), BJ fibroblasts long-term culture; type: cell-based, human; settings: 10 weeks, compared to untreated control
Description: (§2) For long-term cellular experiments, HCT116 (1,000 cells/cm^2) and BJ (10,000 cells/cm^2) cells were fed with 6-thio-dG (1, 3, 10 μM) containing medium every three days. The cells were counted and replated every week for 10-16 weeks. Additionally, HCT116 cells (1,000 cells/cm^2) were fed with 6-thio-G (1, 3, 10 μM) every three days and each week cells were counted, collected for TRF (Telomere Restriction Fragment) analysis and replated. HCT116 cells, following treatment with 10 μM 6-thio-dG for 12 weeks, were then treated with a combination of 10 μM 6-thio-dG and 3 μM GRN163L for 2-4 weeks.

[7] = system: BJ; assay: GI 50 determination, BJ; type: cell-based; settings: Homo sapiens; BJ normal cell line
Description: as §1

[8] = system: HCT116; assay: GI 50 determination, HCT116; type: cell-based; settings: Homo sapiens, HCT-116
Description: as §1

[9] = system: BJ-hTERT cells; assay: Telomere dysfunction induced foci (TIF) assay in BJ-hTERT cells; type: cell-based, human; settings: 10 μM, after 48 hours
Description: (§3) TIFs were quantified using Imaris software.
(§4) Normal BJ cells and […] BJ-hTERT cells were seeded in chamber slides. Following cell attachment, 6-thio-dG (10 μM) and 6-thio-G (10 μM) were added to fresh medium of each cell type. […] A control was used for each cell type as well, where DMSO was added to fresh medium of each cell type. […] These include almost all human cancer cells and certain human diseases involving acute and chronic inflammation.

[10] = system: HCC827; assay: GI 50 determination, HCC827; type: cell-based; settings: Homo sapiens
Description: as §1

[11] = system: A549; assay: GI 50 determination, A549; type: cell-based; settings: Homo sapiens
Description: as §1

[12] = system: HCT116 cells; settings: 1 μM or 10 μM every 3 days, after 10 weeks
Description: as §2

[13] = system: A549 human lung cancer cells; assay: Tumor growth in xenograft animal model with A549 cells; type: in vivo, mice; settings: 2.5 mg/kg every day
Description: Doses of 2.5 mg/kg of 6-thio-dG and 2.5 mg/kg of 6-thio-G were injected every day into mice after tumor implantation and providing time for tumor initiation. DMSO injections were used for the control. The volume of the tumor was measured.

[14] = system: BJ cells; assay: Telomere dysfunction induced foci (TIF) assay in normal BJ cells; type: cell-based, human; settings: 10 μM, after 48 hours
Description: as §3, §4

[15] = Description: Six WT mice were treated with 1.67 mg of 6-thio-dG/kg of body weight daily. Six WT mice were treated with 1.67 mg of 6-thio-G/kg of body weight daily. Six WT mice were treated with 5 mg of 6-thio-dG/kg of body weight daily. Six WT mice were treated with 5 mg of 6-thio-G/kg of body weight daily. The mice were given the appropriate dosage and weighed daily for 25 days.
[16] = system: HCC15; assay: GI 50 determination, HCC15; type: cell-based; settings: Homo sapiens
Description: as §1

[17] = system: HCC4017; assay: GI 50 determination, HCC4017; type: cell-based; settings: Homo sapiens
Description: as §1

[18] = system: HCC2429; assay: GI 50 determination, HCC2429; type: cell-based; settings: Homo sapiens
Description: as §1

[19] = system: H1693; assay: Sensitization by 5-azacytidine pretreatment, H1693; type: cell-based, human; settings: 500 nM 5-azacytidine for one week
Description: (§5) All three resistant cell lines were pre-treated with 500 nM of the demethylating agent 5-azacytidine for one week. Following the 5-azacytidine pretreatment, each resistant cell line was treated with 9 different concentrations (0.01 to 1000 micromolar) of 6-thio-dG for one week. Cells were then evaluation for growth/death.

[20] = system: H1993 cells; assay: Sensitization by 5-azacytidine pretreatment, H1993; type: cell-based, human; settings: 500 nM 5-azacytidine for one week
Description: as §5

[21] = system: H1819; assay: Sensitization by 5-azacytidine pretreatment, H1819; type: cell-based, human; settings: 500 nM 5-azacytidine for one week
Description: as §5

## Nc1nc2nc[nH]c2c(=S)[nH]1 [6-thio-G, 6-thioguanine, reference compound]
[1]
  GI50: 4.9 µM
[2]
  GI50: 3.3 µM
[3]
  GI50: 0.9 µM
[4]
  GI50: 0.6 µM
[5]
  inhibition of telomerase activity (TRAP): no inhibition of telomerase activity was observed
[6]
  telomere shortening (TRF): did not show enhanced telomere shortening
[7]
  GI50: > 100 µM
[8]
  GI50: 1.2 µM
[9]
  >4 TIFs per nucleus background subtracted: 0
[10]
  GI50: 1.7 µM
[11]
  GI50: 2.3 µM
[12]
  effect on telomere length (TRF): did not result in any significant effects on telomere length
[13]
  histology of residual tumors: mostly “healthy” growing cancerous cells
[14]
  >4 TIFs per nucleus background subtracted: 0
[15]; WT mice, 5 mg/kg daily
  mortality: all mice died by the 15th day
[15]; mouse, in vivo, 5 mg/kg
  weight loss: around 2 grams
[16]
  GI50: 1.1 µM
[17]
  GI50: 2 µM
[18]
  GI50: 0.7 µM

## Nc1ncn([C@@H]2O[C@H](CO)[C@@H](O)[C@H]2O)c(=O)n1 [5-azacytidine]
[19]
  effect of pretreatment on sensitivity to 6-thio-dG: no effect on the sensitivity
[20]
  effect of pretreatment on sensitivity to 6-thio-dG: did increase sensitivity of the H1993 cells substantially
[21]
  effect of pretreatment on sensitivity to 6-thio-dG: no effect on the sensitivity
